Source: a melting point compilation (Tetko et al.; mined from patent text by program, amines drawn as free bases though some values may be those of a salt)

melting point	Compound
85 to 93 °C	CC1(C)SC2C(NC(=O)CNC(=O)c3ccccc3)C(=O)N2C1c1nnn[nH]1 (stereo not drawn)
145 to 146 °C	Fc1ccc(C2=CC(=C(C(F)(F)F)C(F)(F)F)N=C2c2ccc(F)cc2)cc1
127 to 129 °C	CN(Cc1cc2c(=O)c(C(=O)NCc3ccc(Cl)cc3)cn(C)c2o1)CC(O)c1ncccn1 (single isomer, unassigned; (+))
49.5 to 50.5 °C	Cc1c(Cl)c(Cl)c(SC(F)(F)F)c(Cl)c1Cl
192 to 194 °C	CC(=O)C1C(Cl)CC2C3CCC4CC(O)C(Cl)CC4(C)C3C(=O)CC21C (stereo not drawn)
128 to 130 °C	COc1cc(C2(C=O)C=CC=CC2)ccc1OCCCN1CCC(c2noc3cc(F)ccc23)CC1 (stereo not drawn)
263 to 265 °C	Sc1nc(-c2ccc(Cl)c(Cl)c2)c(-c2cccs2)[nH]1
123 to 126 °C	Cc1cc(-n2nc(C(N)=O)nc2-c2ccccc2)ccc1F
171 to 173 °C	CNc1ccc([N+](=O)[O-])cc1N
115 to 117 °C	CC(=O)Oc1ccc(CC2SC(=O)NC2=O)cc1 (stereo not drawn)
204 to 206 °C	O=C(O)c1nc2n(n1)-c1ccccc1N(c1cccc(C(F)(F)F)c1)C2
137 to 140 °C	COC(=O)CCC(=O)c1ccc(-c2ccc(SC)cc2)cc1
178 °C	CC(C)(C)OC(=O)CCc1cc(S(C)(=O)=O)cc(-c2nc(=O)c3ccc(F)cc3s2)n1
243 to 244 °C	O=C(Nc1cc(Cl)cc(Cl)c1)c1cc(Br)ccc1O
89 to 91 °C	CCCCCCCCCCCCCCCc1cc2cc(C(=O)OCC)ccc2[nH]1
84 to 89 °C	CCCCC(CC)Cn1c(C)cc(C)c(C#N)c1=O (stereo not drawn)
58 °C	CNCCCCCCCCCCCO

melting point	Compound
107 to 110 °C	O=C1c2cc([N+](=O)[O-])ccc2OC12CC2
118 to 120 °C	CC1(C)OC[C@@H](COn2cnc3c(Cl)nc(N)nc32)O1
235 °C	Cc1cccc(C)c1CNc1cc(C2=NCCO2)cc2c1nc(C)n2C
281 °C	O=C1Nc2ccc(Cl)cc2C1(c1ccccc1)c1ccccc1
224 °C	CCN(c1ccc(N2CCN(c3ccc(OC)cc3)CC2)cc1)c1nc(-c2ccccc2)cs1
72 to 73 °C	FC(F)(F)c1cccc(Oc2ccnc(-n3ccc(C(F)(F)F)n3)n2)c1
225 to 227 °C	CCC(C#N)C(=O)Nc1ccc(C2=NNC(=O)CC2C)cc1 (stereo not drawn)
108 to 110 °C	NC1CC(O)c2ccccc21 (stereo not drawn)
120 to 121 °C	Cc1csc2ncc(C(O)CCCCc3ccccc3)n12 (stereo not drawn)
138 °C	COc1ccc(C2CCCCC2)cc1-c1csc(NC(=O)N2CCN(C3CCN(S(=O)(=O)C4CC4)CC3)CC2)n1
66 to 67 °C	CCCCCCCCCCCCCCn1ccc(C(=O)O)c1
255 to 258 °C	CCOC(=O)c1cnc2nc(C)c(OCC)cc2c1O
183 to 185 °C	CC(C)(C#N)c1ccc2nc(O)nnc2c1
50 to 51 °C	Cc1cc(-c2oncc2CCCO)ccc1Cl
170 to 171 °C	CC(=O)Nc1ccc(C(C)(C)C(=O)O)cc1
282 to 284 °C	COc1ccc(-c2nc(N)sc2-c2ccncc2)cc1
140 to 141 °C	COc1ccc(C(=O)CBr)cc1C12CC3CC(CC(C3)C1)C2

Further lines, the compound ahead of its results:

Compound	melting point
C#CCCC(=O)N1CCC(=Cc2ccc(C3=NCCO3)cc2)CC1	118 °C
CC(C)(C)c1cc(NC(=O)Nc2cccc(Cl)c2Cl)c(-c2ccncc2)o1	195 to 198 °C
CCCc1c(OCCCCCCc2ccc3cc(OCc4ccccc4)c(OCc4ccccc4)cc3c2)ccc(C(=O)OCc2ccccc2)c1O	94 to 97 °C
COc1ccc(S(=O)(=O)n2cc(F)c(N)nc2=O)cc1	158 to 162 °C
NC(=O)N(O)CCNC(=O)c1cccc(S(=O)(=O)c2ccc(Cl)cc2)c1	183 to 186 °C
OCC1C=CC(n2cnc3cc(Cl)c(Cl)cc32)C1 (stereo not drawn)	166 to 169 °C
Cc1nnc2c3c(c(Cl)nn12)C1CCC3CC1	178 to 179 °C
CN(C)c1ccc(Br)cn1	39 to 41 °C
CS(=O)(=O)Nc1ccc(NC(=O)CCl)cc1	174 to 177 °C
ClCc1ccccc1COc1ccc(C=Cc2ccc3ccccc3n2)cc1	127 to 128 °C
Cc1nc2c(O)c(C(=O)[C@H](O)[C@@H](O)c3ccccc3)ccc2n1C1CC1	120 °C
CC(C)(C)OC(=O)NCCSc1cccc2nccn12	105 to 107 °C
CC(C)(C)Nc1c(NCc2cc3cc(C#N)ccc3o2)c(=O)c1=O	299 to 300 °C
COC(=O)NCc1cccc(-c2ccnc3c(C(=O)c4ccco4)cnn23)c1	152 to 154 °C
O=c1cc(N2CCOCC2)oc2ccc(Br)cc12	147 to 149 °C
CNn1cc(C(=O)O)c(=O)c2cc(F)c(N3CCC(N)C3)c(F)c21 (stereo not drawn)	210 to 211 °C
CC1CCc2ncc(C(N)=O)c(=O)n21 (stereo not drawn)	191 °C
CC(C)C1(C)N=C(c2cc3c(nc2C(=O)O)COC3)NC1=O (stereo not drawn)	115 to 118 °C
COc1ccc(S(=O)(=O)N2C(=O)[C@@](c3ccccc3OC)(N3C[C@H](OC(=O)CCC(=O)O)C[C@H]3C(=O)N(C)C)c3cc(Cl)ccc32)c(OC)c1	225 to 228 °C
CC(O)(CCC#N)c1ccc(Oc2cccc(Cl)c2)cc1 (stereo not drawn)	68 to 70 °C
Cc1cn2ccc(N)c(Br)c2n1	158 to 160 °C
O=[N+]([O-])c1ccc(OCc2ccccc2)c(C(F)(F)F)c1	112 to 114 °C
Cn1nnc(-c2ccc3c(c2)c(C2=CCN(CCc4nnn[nH]4)CC2)cn3-c2ccc(F)cc2)n1	131 to 132 °C

Compound	melting point
Nc1nc(O)c2cc(CCc3ccc(C(=O)N[C@@H](CCC(=O)O)C(=O)O)cc3)cnc2n1	> 200 °C
CC(C)(C)OP(=O)(Cc1ccc(Br)cc1)OC(C)(C)C	45 °C
Cc1cc(C(=O)OC2CC(C)(C)NC(C)(C)C2)c(C)o1	59 to 61 °C
CS(=O)(=O)On1nnc2ccccc2c1=O	132 to 134 °C
Cc1cc2c(cc1O)C(C)(C)CC1(CC(C)(C)c3cc(OC(C)(C)C(=O)O)c(C)cc3O1)O2 (stereo not drawn)	99 to 101 °C
CCOC(=O)C(C(=O)OCC)c1cc(OC)ccc1[N+](=O)[O-]	92 to 93 °C
O=C(O)CCc1cc2nc(C(F)(F)F)ccc2n1S(=O)(=O)c1cccc2ccccc12	116 to 117 °C
CC(CC(C)C1CCC2C3C(O)CC4CC(O)CCC4(C)C3CC(O)C12C)C(=O)O (stereo not drawn)	151 to 153 °C
CC1(C)C=Cc2c(-c3[nH]c4cn[nH]c(=O)c4c3Cl)ccc(OC(F)F)c2O1	226 to 234 °C
O=C(O)CCCCCCc1cccc(-c2nc(=O)c3ccccc3s2)n1	149 to 151 °C
Cc1ccc(C)c(S(=O)(=O)N(C)CC(O)(CO)c2ccccc2)c1 (stereo not drawn)	114 to 115 °C
CCOC(=O)CCCn1c(Nc2cnc(OC)cc2C)nc2c(Cl)ccc(C(CC)CC)c21	140 to 142 °C
CCCCCCCCCCCC(O)CC(=O)C(CCCCCC)C(=O)OC (stereo not drawn)	38 to 39 °C
CCCn1c(=O)c2[nH]c(N3CCOCC3)nc2n(CCC)c1=O	251 to 252 °C
COc1ccc(-c2nc(CCl)co2)s1	64 to 65 °C
C=CCN1CC(C)N(C(c2cccc(O)c2)c2cc(C(=O)N(CC)CC)cs2)CC1C (stereo not drawn)	108 to 112 °C
CC(C)(C)OC(=O)CN(C(=O)CN1C(=O)c2ccccc2C1=O)c1ccccc1-c1ccccc1	145 °C
CNC(=O)[C@H](Cc1ccccc1)NC(=O)[C@H](CC(C)C)N[C@H](CCN(C(=O)OCc1ccccc1)C(=O)OCc1ccccc1)C(=O)OC(C)(C)C	95 to 99 °C
O=C(c1ccccc1)C(O)CCl (stereo not drawn)	42 to 45 °C
O=C(O)/C=C/C=C(c1cccc(F)c1)c1cccc(F)c1	142 to 143 °C
O=C(O)CN1CCN2c3ccccc3Cc3ccccc3C2C1 (stereo not drawn)	162 to 163 °C
CC(=O)OC1CSC(Oc2ccc(-c3ccc(CO)cc3)nc2)C(OC(C)=O)C1OC(C)=O (stereo not drawn)	157 °C
O=C(C=Cc1ccc2c(c1)OCO2)C1C(=O)CCC1=O	181 to 182 °C

Compound	melting point
CCOC(=O)c1cc2c([nH]1)c(N(C)S(=O)(=O)c1cccs1)cn2CC	122 °C
OCc1cc2sccc2s1	91 to 93 °C
COc1ccc2c(c1)C(c1ccc(N)cc1)=NNC(=O)C2	167 to 170 °C
CNC(=O)c1ccccc1Nc1nc(Nc2ccc3c(c2)CN(CCOC)CCS3)ncc1Cl	176 to 177 °C
Cc1nc(N)sc1S(=O)(=O)N1CCC(O)C1 (racemic)	165 °C
Cc1cc(C=CC#N)c(Cl)cc1F	90 to 91 °C
C=CSc1nc(-c2ccc(OC)cc2)c(-c2ccc(OC)cc2)[nH]1	114 to 115 °C
CC(C)(C)C(Nc1c(Nc2cccnc2)c(=O)c1=O)C(Oc1ccccc1)C(N)=O (stereo not drawn)	227 to 228 °C
COc1c2c(c(OC)c(OC)c1OC)CC(CCCCCCCCNC(C)=O)C2	57 to 61 °C
O=C(O)c1cc(-c2ccc([N+](=O)[O-])cc2)c(-c2ccc(F)cc2)s1	227 to 229 °C
CCOC(=O)C(=O)Nc1cccc(NC(=O)C(=O)OCC)n1	179 to 180 °C
c1ccc2c(c1)ncc1nncn12	238 to 239 °C
Cc1cc(-c2cnn3c(C(F)(F)F)cc(-c4ccc(C)c(C(F)(F)F)c4)nc23)cc(C)n1	258 °C
COc1nccc(-c2c(-c3ccc(F)cc3)ncn2[C@H]2CC[C@H](O)CC2)n1	188 to 190 °C
CNC(=O)N(C)C(CCSC)P(=O)(O)O (stereo not drawn)	164 to 167 °C
Cc1ccc2c(c1)C1(OCCCO1)C(=O)N2	128 to 130 °C
OCCc1cccc2c(-c3ccccc3)c(Br)oc12	108 to 112 °C
O=C(c1cccnc1)C(O)c1ccccc1Br (stereo not drawn)	105 to 108 °C
CN(c1ccc(S(C)(=O)=O)cc1)S(=O)(=O)c1cccc(NC(=O)c2ccc(Br)cc2)c1	216 to 218 °C
CCNC(=O)Nc1cc(F)cc2c1OCCC21SC(=O)NC1=O (stereo not drawn)	197 to 199 °C
CCC1SC(N(C)C(=O)NC)=NN1C(=O)C(C)(C)C (stereo not drawn)	144 to 146 °C
CCOC(=O)C(C)(C)NC(=O)c1ccc(S(=O)(=O)N2C(=O)C(NC)(c3ccccc3Cl)c3cc(Cl)ccc32)c(OC)c1 (stereo not drawn)	141 °C
CCOC(OCC)c1cc(NC(c2ccccc2)(c2ccccc2)c2ccccc2)c(F)cn1	125 to 127 °C
